Experimental data as given in the NIST ThermoML archive (doi:10.1021/acs.jced.9b00371).
Numbers after ± are expanded uncertainties.

Conditions: Liquid, Brillouin light scattering method

With `CCCCCCCC(=O)OC` [methyl octanoate] the speed of sound (298.22 K, 7000 kPa) was 1316.3 ± 14 m/s, the speed of sound (298.3 K, 10010 kPa) was 1327.9 ± 15 m/s and the speed of sound (298.44 K, 1010 kPa) was 1292.1 ± 14 m/s. The speed of sound (298.44 K, 5000 kPa) was 1307.1 ± 14 m/s, the speed of sound (298.6 K, 3000 kPa) was 1298.2 ± 14 m/s and the speed of sound (298.84 K, 90 kPa) was 1274.5 ± 14 m/s. The speed of sound (308.25 K, 3010 kPa) was 1258.8 ± 15 m/s, the speed of sound (308.37 K, 10010 kPa) was 1291.2 ± 14 m/s and the speed of sound (308.42 K, 100 kPa) was 1236.4 ± 15 m/s. It also gave a speed of sound (308.49 K, 7010 kPa) of 1280.4 ± 14 m/s, a speed of sound (308.52 K, 1010 kPa) of 1248.8 ± 15 m/s and a speed of sound (308.58 K, 5010 kPa) of 1270.1 ± 14 m/s. For the same compound, the speed of sound (318.18 K, 5010 kPa) was 1221.3 ± 15 m/s, the speed of sound (318.56 K, 7020 kPa) was 1229.5 ± 15 m/s and the speed of sound (318.76 K, 10010 kPa) was 1242.4 ± 15 m/s. For the same compound, the speed of sound (318.91 K, 3010 kPa) was 1208 ± 14 m/s, the speed of sound (319.59 K, 110 kPa) was 1192.3 ± 14 m/s and the speed of sound (319.89 K, 1010 kPa) was 1194.5 ± 14 m/s. For the same compound, the speed of sound (327.96 K, 5010 kPa) was 1186 ± 14 m/s, the speed of sound (328.11 K, 3020 kPa) was 1171.3 ± 14 m/s and the speed of sound (328.36 K, 100 kPa) was 1158 ± 14 m/s. For the same compound, the speed of sound (328.69 K, 7010 kPa) was 1191.4 ± 14 m/s, the speed of sound (328.82 K, 10010 kPa) was 1209.9 ± 14 m/s and the speed of sound (328.88 K, 1010 kPa) was 1155.4 ± 14 m/s. It also gave a speed of sound (337.63 K, 100 kPa) of 1121.6 ± 15 m/s, a speed of sound (337.88 K, 7010 kPa) of 1157.9 ± 14 m/s and a speed of sound (338.43 K, 1010 kPa) of 1125.5 ± 15 m/s. It also gave a speed of sound (338.46 K, 10010 kPa) of 1174.8 ± 14 m/s, a speed of sound (338.47 K, 5000 kPa) of 1147.2 ± 14 m/s and a speed of sound (338.96 K, 3000 kPa) of 1134.3 ± 14 m/s. For the same compound, the speed of sound (347.39 K, 3000 kPa) was 1104.6 ± 14 m/s, the speed of sound (347.87 K, 10010 kPa) was 1148.4 ± 14 m/s and the speed of sound (348.45 K, 110 kPa) was 1078.6 ± 14 m/s. It also gave a speed of sound (348.54 K, 5020 kPa) of 1109.1 ± 14 m/s, a speed of sound (348.77 K, 7000 kPa) of 1120.5 ± 15 m/s and a speed of sound (348.8 K, 1000 kPa) of 1085.5 ± 14 m/s. For the same compound, the speed of sound (357.69 K, 3010 kPa) was 1071.8 ± 14 m/s, the speed of sound (357.74 K, 5000 kPa) was 1079.2 ± 14 m/s and the speed of sound (357.91 K, 10000 kPa) was 1112.7 ± 14 m/s. It also gave a speed of sound (358.16 K, 100 kPa) of 1044.6 ± 14 m/s, a speed of sound (358.25 K, 7000 kPa) of 1095.1 ± 14 m/s and a speed of sound (358.56 K, 1010 kPa) of 1049.3 ± 14 m/s. It also gave a speed of sound (367.26 K, 5000 kPa) of 1049.2 ± 14 m/s, a speed of sound (367.28 K, 3000 kPa) of 1038.1 ± 14 m/s and a speed of sound (367.29 K, 110 kPa) of 1015.5 ± 14 m/s. For the same compound, the speed of sound (367.47 K, 10010 kPa) was 1078.4 ± 14 m/s, the speed of sound (367.73 K, 7010 kPa) was 1060.7 ± 14 m/s and the speed of sound (368.05 K, 1000 kPa) was 1017.5 ± 14 m/s. It also gave a speed of sound (377.8 K, 1000 kPa) of 989.1 ± 14 m/s, a speed of sound (378.03 K, 7000 kPa) of 1027.3 ± 13 m/s and a speed of sound (378.16 K, 4990 kPa) of 1013.1 ± 14 m/s. For the same compound, the speed of sound (378.27 K, 100 kPa) was 975.6 ± 14 m/s, the speed of sound (378.29 K, 10000 kPa) was 1047.1 ± 14 m/s and the speed of sound (378.6 K, 3000 kPa) was 1000.4 ± 14 m/s. It also gave a speed of sound (387.15 K, 110 kPa) of 947.3 ± 13 m/s, a speed of sound (387.64 K, 3000 kPa) of 964.7 ± 14 m/s and a speed of sound (387.88 K, 10010 kPa) of 1017.7 ± 14 m/s. It also gave a speed of sound (388.01 K, 7000 kPa) of 991.8 ± 14 m/s, a speed of sound (388.02 K, 1000 kPa) of 952.1 ± 13 m/s and a speed of sound (388.04 K, 5000 kPa) of 978.4 ± 14 m/s. For the same compound, the speed of sound (397.22 K, 1010 kPa) was 922.4 ± 14 m/s, the speed of sound (397.37 K, 3010 kPa) was 934 ± 14 m/s and the speed of sound (397.49 K, 10010 kPa) was 988 ± 14 m/s. It also gave a speed of sound (397.57 K, 7010 kPa) of 963.7 ± 14 m/s, a speed of sound (397.59 K, 5010 kPa) of 949.2 ± 13 m/s and a speed of sound (397.71 K, 100 kPa) of 910.7 ± 14 m/s. It also gave a speed of sound (407.84 K, 5010 kPa) of 916.3 ± 14 m/s, a speed of sound (408.01 K, 10010 kPa) of 954.1 ± 13 m/s and a speed of sound (408.03 K, 3000 kPa) of 896.1 ± 13 m/s. For the same compound, the speed of sound (408.14 K, 100 kPa) was 873.1 ± 13 m/s, the speed of sound (408.48 K, 7010 kPa) was 933.8 ± 14 m/s and the speed of sound (409.43 K, 1000 kPa) was 879.8 ± 13 m/s. The speed of sound (417.31 K, 1010 kPa) was 850.6 ± 14 m/s, the speed of sound (417.49 K, 110 kPa) was 841.4 ± 14 m/s and the speed of sound (417.49 K, 5000 kPa) was 885.5 ± 13 m/s. The speed of sound (417.57 K, 7000 kPa) was 904.2 ± 14 m/s, the speed of sound (417.65 K, 10000 kPa) was 925.4 ± 14 m/s and the speed of sound (417.75 K, 3000 kPa) was 867.9 ± 13 m/s. For the same compound, the speed of sound (427.78 K, 110 kPa) was 811.6 ± 13 m/s, the speed of sound (427.88 K, 7010 kPa) was 873.7 ± 13 m/s and the speed of sound (427.9 K, 1010 kPa) was 822.3 ± 13 m/s. The speed of sound (427.93 K, 3010 kPa) was 837.5 ± 13 m/s, the speed of sound (427.94 K, 10010 kPa) was 899.7 ± 14 m/s and the speed of sound (427.95 K, 5010 kPa) was 855.8 ± 14 m/s.
